Source: PMC8765048 (JCI Insight, 2022)
Where two headings read alike, the source gives them in different places.

Assays:
[1] = system: SARS-CoV-2 P.1 (Gamma); experiment: microbe, parasite or virus in culture; format: cell-based
[2] = system: SARS-CoV-2; experiment: Combinatorial sangivamycin/remdesivir efficacy testing, Vero E6 cells; format: cell-based; conditions: read-out: IC50 (nM), S:R by [Sangivamycin]
[3] = CellTiter-Glo cell viability assay; format: cell-based; conditions: human, HEK293T cells
[4] = system: Huh-7 cells; experiment: Acute mitochondrial or glycolytic stress assay (Seahorse XF96e); format: cell-based, human
Text: Other important measures of cell viability are mitochondrial integrity, function, cardiotoxicity, and genotoxicity, since other nucleoside analogs may vary in their effect on these endpoints ([29], [30]). Dyes commonly used to assess mitochondrial integrity are MitoTracker Green (MTG), a mitochondrial stain mostly localized to mitochondria based on hydrophobicity, and N-alkyl acridine orange (NAO), which binds to mitochondrial cardiolipin. Untreated Huh-7 cells and Huh-7 cells treated for 5 days with 100 nM sangivamycin were stained with MTG and NAO and imaged by fluorescence microscopy. […] To more quantitatively assess the impact of sangivamycin on mitochondrial integrity, we evaluated the effect of sangivamycin on mitochondrial metabolic function as well as cytoplasmic glycolytic function. The XF96e Seahorse instrument was used to quantify the oxygen consumption rate (OCR) over time in untreated control and sangivamycin-treated Huh-7 cells. […] Standard metabolic endpoints quantified with or without sangivamycin included sequential treatment and washout of cell cultures with oligomycin (ATP synthase inhibitor), carbonyl cyanide 4-(trifluoromethoxy)phenylhydrazone (FCCP; a proton gradient uncoupler), and antimycin A + rotenone (complex I and III blockers) (Supplemental Figure 7). […]

[5] = system: HepG2 (human hepatocarcinoma); experiment: CellTox Green Cytotoxicity Assay; conditions: ratio > 1 cytostatic, ≤ 1 cytotoxic
[6] = Metabolic stability testing, liver microsomes; format: in vitro ADME; conditions: pH 7.4, 0.5 mg/mL microsomes, NADPH
Protocol: To evaluate metabolic stability, sangivamycin was incubated by Cyprotex in duplicate with active and heat-inactivated human and CD-1 laboratory mouse liver microsomes (0.5 mg/mL) and cofactors (2.5 mM NADPH and 3.3 mM MgCl2) in 0.1 M phosphate buffer (pH 7.4) at 37°C. Aliquots were removed at 0, 15, 30, 60, 90, and 120 minutes, and the amount of drug remaining at each time point was determined by LC-MS/MS.

[7] = biological target: T1, CYP2C8 (Homo sapiens, UniProt P10632); experiment: CYP inhibition testing, human liver microsomes; format: in vitro ADME
T1 construct: along with human liver microsomes (0.5 mg/mL) and cofactors; tissue Cyprotex (performed the assay); host or cells: human liver microsomes
T1 sequence (P10632 whole entry): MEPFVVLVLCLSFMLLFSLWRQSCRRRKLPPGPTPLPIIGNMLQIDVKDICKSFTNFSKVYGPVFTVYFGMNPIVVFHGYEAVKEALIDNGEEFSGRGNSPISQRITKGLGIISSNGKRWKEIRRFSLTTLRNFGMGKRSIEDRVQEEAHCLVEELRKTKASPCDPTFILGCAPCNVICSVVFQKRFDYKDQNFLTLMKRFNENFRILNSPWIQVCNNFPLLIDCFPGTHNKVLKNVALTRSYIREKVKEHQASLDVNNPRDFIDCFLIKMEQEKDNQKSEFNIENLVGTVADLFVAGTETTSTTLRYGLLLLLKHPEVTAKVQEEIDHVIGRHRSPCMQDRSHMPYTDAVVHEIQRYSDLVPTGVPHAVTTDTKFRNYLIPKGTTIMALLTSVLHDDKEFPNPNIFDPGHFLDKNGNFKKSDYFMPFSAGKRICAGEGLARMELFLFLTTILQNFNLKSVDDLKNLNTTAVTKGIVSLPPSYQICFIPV
Protocol: (§1) Sangivamycin was incubated by Cyprotex with a cocktail of model CYP substrates for CYP1A2, CYP2B6, CYP2C8, CYP2C9, CYP2C19, CYP2D6, CYP3A4, and CYP3A4, along with human liver microsomes (0.5 mg/mL) and cofactors (2.5 mM NADPH and 3.3 mM MgCl2), in 0.1 M phosphate buffer (pH 7.4) for 20 minutes at 37°C. Known CYP inhibitors were used in lieu of sangivamycin as positive controls: furafylin (1A2), thioTEPA (2B6), montelukast (2C8), sulfaphenazole (2C9), nootkatone (2C19), quinidine (2D6), and ketoconazole (3A4). Formation of substrate breakdown metabolites was measured by LC-MS/MS and compared with control incubation (incubation of substrates with microsomes and cofactors but in the absence of sangivamycin or in the presence of known inhibitors). CYP inhibition was measured as a decrease in the formation of expected metabolites in the presence of sangivamycin or control inhibitor (defined as a percentage of control).

[8] = biological target: T2, CYP2C19 (Homo sapiens, UniProt P33261); experiment: CYP inhibition testing, human liver microsomes; format: in vitro ADME
T2 construct: along with human liver microsomes (0.5 mg/mL) and cofactors; tissue Cyprotex (performed the assay); host or cells: human liver microsomes
T2 sequence (P33261 whole entry): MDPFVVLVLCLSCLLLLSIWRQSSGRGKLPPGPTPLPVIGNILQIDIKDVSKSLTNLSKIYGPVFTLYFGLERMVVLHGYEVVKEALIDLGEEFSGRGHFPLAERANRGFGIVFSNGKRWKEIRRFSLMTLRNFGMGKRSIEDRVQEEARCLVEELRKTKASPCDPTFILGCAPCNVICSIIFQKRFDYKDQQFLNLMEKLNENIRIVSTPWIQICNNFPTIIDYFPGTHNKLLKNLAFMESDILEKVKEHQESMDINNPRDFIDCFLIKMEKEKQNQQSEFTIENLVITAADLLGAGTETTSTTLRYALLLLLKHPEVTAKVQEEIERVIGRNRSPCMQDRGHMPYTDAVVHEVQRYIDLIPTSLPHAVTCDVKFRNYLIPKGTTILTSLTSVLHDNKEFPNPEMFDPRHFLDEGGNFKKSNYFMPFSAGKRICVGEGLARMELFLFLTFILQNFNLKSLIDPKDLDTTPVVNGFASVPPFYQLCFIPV
Protocol: as §1

[9] = biological target: T3, CYP2C9 (Homo sapiens, UniProt P11712); experiment: CYP inhibition testing, human liver microsomes; format: in vitro ADME
T3 construct: along with human liver microsomes (0.5 mg/mL) and cofactors; tissue Cyprotex (performed the assay); host or cells: human liver microsomes
T3 sequence (P11712 whole entry): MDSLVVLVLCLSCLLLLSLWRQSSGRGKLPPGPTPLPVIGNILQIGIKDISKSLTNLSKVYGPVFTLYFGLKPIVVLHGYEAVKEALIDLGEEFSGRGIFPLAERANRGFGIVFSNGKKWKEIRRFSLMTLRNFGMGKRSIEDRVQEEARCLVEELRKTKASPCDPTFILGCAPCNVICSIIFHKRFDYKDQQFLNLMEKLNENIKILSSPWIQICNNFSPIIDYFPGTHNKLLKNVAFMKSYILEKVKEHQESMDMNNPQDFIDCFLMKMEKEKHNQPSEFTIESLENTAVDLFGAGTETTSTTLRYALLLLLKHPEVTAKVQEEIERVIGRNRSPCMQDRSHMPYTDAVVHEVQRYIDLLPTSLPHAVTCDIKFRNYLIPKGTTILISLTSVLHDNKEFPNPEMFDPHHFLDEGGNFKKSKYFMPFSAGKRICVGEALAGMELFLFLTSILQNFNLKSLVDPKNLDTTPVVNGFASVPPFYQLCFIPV
Protocol: as §1

[10] = biological target: T4, CYP1A2 (Homo sapiens, UniProt P05177); experiment: CYP inhibition testing, human liver microsomes; format: in vitro ADME
T4 construct: along with human liver microsomes (0.5 mg/mL) and cofactors; tissue Cyprotex (performed the assay); host or cells: human liver microsomes
T4 sequence (P05177 whole entry): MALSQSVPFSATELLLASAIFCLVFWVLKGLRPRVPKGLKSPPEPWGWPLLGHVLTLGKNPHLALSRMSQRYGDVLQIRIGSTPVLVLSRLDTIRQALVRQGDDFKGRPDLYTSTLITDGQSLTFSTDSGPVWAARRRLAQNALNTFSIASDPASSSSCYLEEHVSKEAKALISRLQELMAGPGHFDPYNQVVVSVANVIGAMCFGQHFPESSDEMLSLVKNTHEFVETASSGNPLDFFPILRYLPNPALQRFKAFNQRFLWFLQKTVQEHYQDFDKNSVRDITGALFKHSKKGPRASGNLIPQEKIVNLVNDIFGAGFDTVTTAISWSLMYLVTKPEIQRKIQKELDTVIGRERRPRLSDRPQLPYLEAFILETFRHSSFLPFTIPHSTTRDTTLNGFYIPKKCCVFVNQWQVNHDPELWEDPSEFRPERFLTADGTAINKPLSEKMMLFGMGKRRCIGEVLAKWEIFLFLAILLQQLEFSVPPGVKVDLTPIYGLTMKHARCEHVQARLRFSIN
Protocol: as §1

[11] = biological target: T5, CYP2B6 (Homo sapiens, UniProt P20813); experiment: CYP inhibition testing, human liver microsomes; format: in vitro ADME
T5 construct: along with human liver microsomes (0.5 mg/mL) and cofactors; tissue Cyprotex (performed the assay); host or cells: human liver microsomes
T5 sequence (P20813 whole entry): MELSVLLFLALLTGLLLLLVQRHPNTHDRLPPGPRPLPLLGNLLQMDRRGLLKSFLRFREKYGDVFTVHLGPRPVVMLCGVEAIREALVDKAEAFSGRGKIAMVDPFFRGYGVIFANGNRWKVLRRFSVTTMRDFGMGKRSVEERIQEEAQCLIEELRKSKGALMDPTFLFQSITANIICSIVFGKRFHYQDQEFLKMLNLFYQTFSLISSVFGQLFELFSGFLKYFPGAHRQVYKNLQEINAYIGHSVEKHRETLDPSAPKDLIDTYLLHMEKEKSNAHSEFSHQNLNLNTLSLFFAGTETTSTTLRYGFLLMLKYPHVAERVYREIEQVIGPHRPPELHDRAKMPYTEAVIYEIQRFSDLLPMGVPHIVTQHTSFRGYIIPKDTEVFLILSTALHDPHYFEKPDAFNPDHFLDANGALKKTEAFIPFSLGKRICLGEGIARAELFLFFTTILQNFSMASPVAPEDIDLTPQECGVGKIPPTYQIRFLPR
Protocol: as §1

[12] = biological target: T6, CYP3A4 (Homo sapiens, UniProt P08684); experiment: CYP inhibition testing, human liver microsomes; format: in vitro ADME
T6 construct: along with human liver microsomes (0.5 mg/mL) and cofactors; tissue Cyprotex (performed the assay); host or cells: human liver microsomes
T6 sequence (P08684 whole entry): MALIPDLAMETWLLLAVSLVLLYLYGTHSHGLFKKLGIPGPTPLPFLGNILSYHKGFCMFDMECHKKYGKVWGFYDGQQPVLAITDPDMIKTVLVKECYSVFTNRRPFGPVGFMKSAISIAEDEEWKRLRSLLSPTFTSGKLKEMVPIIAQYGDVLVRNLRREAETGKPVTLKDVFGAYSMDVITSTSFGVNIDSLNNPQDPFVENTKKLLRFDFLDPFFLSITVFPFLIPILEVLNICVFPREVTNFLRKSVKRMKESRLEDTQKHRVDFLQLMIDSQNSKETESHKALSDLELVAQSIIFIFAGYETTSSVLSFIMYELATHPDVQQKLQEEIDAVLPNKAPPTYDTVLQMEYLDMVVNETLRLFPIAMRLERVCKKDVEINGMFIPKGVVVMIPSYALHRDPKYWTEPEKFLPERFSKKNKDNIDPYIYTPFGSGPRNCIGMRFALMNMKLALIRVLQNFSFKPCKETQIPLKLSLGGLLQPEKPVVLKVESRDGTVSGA
Protocol: as §1

[13] = biological target: T7, CYP2D6 (Homo sapiens, UniProt P10635); experiment: CYP inhibition testing, human liver microsomes; format: in vitro ADME
T7 construct: along with human liver microsomes (0.5 mg/mL) and cofactors; tissue Cyprotex (performed the assay); host or cells: human liver microsomes
T7 sequence (P10635 whole entry): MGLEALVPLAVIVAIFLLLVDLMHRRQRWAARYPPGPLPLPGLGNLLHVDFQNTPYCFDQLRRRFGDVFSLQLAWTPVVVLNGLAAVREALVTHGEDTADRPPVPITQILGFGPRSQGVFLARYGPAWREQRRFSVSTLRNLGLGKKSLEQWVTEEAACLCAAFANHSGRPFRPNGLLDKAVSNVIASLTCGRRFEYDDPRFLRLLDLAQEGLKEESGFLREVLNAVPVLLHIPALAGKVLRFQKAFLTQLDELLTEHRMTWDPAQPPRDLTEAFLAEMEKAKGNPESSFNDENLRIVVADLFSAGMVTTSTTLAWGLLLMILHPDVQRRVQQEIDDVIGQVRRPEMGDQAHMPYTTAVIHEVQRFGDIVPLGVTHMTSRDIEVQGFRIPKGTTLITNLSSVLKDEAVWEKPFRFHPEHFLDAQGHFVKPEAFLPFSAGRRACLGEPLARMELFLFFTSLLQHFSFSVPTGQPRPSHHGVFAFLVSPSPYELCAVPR
Protocol: as §1

[14] = system: Ebola virus RNA-directed RNA polymerase (RdRp) activity; conditions: in vitro; cited from earlier work
[15] = Severe acute respiratory syndrome coronavirus 2, Calu-3, 24 h

For `NC(=O)c1cn([C@@H]2O[C@H](CO)[C@@H](O)[C@H]2O)c2ncnc(N)c12` [Sangivamycin, sangivamycin], the “SI (selectivity index, CC50/IC50)” value ([1]; P.1 (Gamma), Calu-3 cells) was greater than 9.5, the IC50 [1, 15] was 63.3 nM and the IC90 [1, 15] was 204 nM. The IC50 ([2]; Severe acute respiratory syndrome coronavirus 2, Vero C1008) was 34 nM, the IC50 ([2]; listed as S:R 1:0) was 34.3 nM and the CC50 at 72 h [3] was 885 nM. For the same molecule, the “Acute effects on mitochondrial and glycolytic stress (Seahorse measurements)” value ([4]; 0.05–5 μM) was greater than 5 µM, the “oxygen consumption rate (OCR) relative to untreated control cells” value ([4]; up to 5 μM) was “did not significantly change the OCR” and the “Ratio CellTox Green/CellTiter-Glo” value [5] was greater than 2.82. It also gave a remaining at 2 h, 5 μM ([6]; CD-1, mouse, read-out: Mouse liver microsome stability (% remaining at 120 min)) of 100%, a remaining at 2 h, 5 μM ([6]; human, read-out: Human liver microsome stability (% remaining at 120 min)) of 100% and an IC50 [7] greater than 100000 nM. For the same molecule, the IC50 [8] was greater than 100000 nM, the IC50 [9] was greater than 100000 nM and the IC50 [10] was greater than 100000 nM. For the same molecule, the IC50 [11] was greater than 100000 nM, the IC50 [12] was greater than 100000 nM and the IC50 [13] was greater than 100000 nM. For the same molecule, the “effect of remdesivir and sangivamycin combined” value [14] was “additive effect”.
